Test results from patent US5409932A, “Piperazine-substituted pyrroloanthracenes” (Bayer AG, priority 1993, dated 1995).

What follows are compounds tested on human T cells (assay: Inhibition of 5-HT-dependent T Cell Proliferation). Conditions: Homo sapiens, T-cell, monocyte-free human T cells stimulated with PWM and 5-HT; 3H-thymidine incorporation; 7 days.
Type: cell-based
Source text: The in vitro activity of the compounds according to the invention results from their capability to inhibit T cell proliferation, which is previously stimulated by serotonin.
Inhibition of 5-HT-dependent T Cell Proliferation
Peripheral mononuclear blood cells (PBMC) are obtained from the buffy coat of the blood of healthy subjects. After isolation by means of isolymph gradients (Pharmacia), the PBMC are washed twice and used directly. Purified T cells are obtained by E rosette formation with sheep erythrocytes [cf. Blue, M.-L. , J. F. Daley, H. Levine, K. A. Craig and S. F. Schlossmann, 1986, Biosynthesis and surface expression of T8 by peripheral blood T4+cells in vitro, J. Immunol. 137, 1202]. Monocytes are partially removed by adhesion to tissue culture plates or flasks. PBMC, T cells or purified T cells (depleted in monocytes) at 5×10^5 /ml, 100 μl/well are cultured in RPMI 1640 medium with 10% fetal calf serum (GIBCO) and L-glutamine in 96-well microculture plates (Becton--Dickinson)under a 5% CO2 atmosphere at 37° C. for 7 days. The cultures are treated with 1 μCi of ^3 H-thymidine for 6 h on the 7th day and collected on filter paper, and the incorporated radioactivity is determined by means of liquid scintillation counting.
The test substances are dissolved in 10 mM HCl in order to achieve a final concentration of 1 mM in each case. The compounds are diluted serially 3×with medium in order to obtain a final concentration between 33 μM-0.1 μM. PWM (1:200, pokeweed mitogen) and 5-HT (100 μm, serotonin), which contain the test substances, are added to monocyte-free human T cells. The positive control (maximum proliferation) is obtained from cultures containing T cells, PWM and 5-HT. The negative control (minimal proliferation) is obtained from cultures containing T cells and PWM without 5-HT. The inhibitory activity of the test substances is expressed as the IC50 in μM. (see also WO 92/04015)
Compound `O=C1C2C3c4ccccc4C(Cl)(c4ccccc43)C2C(=O)N1CCCN1CCN(c2ccccc2)CC1` (stereo not shown) [Example 34] has an IC50 greater than 10 µM. `Cc1ccc(N2CCN(CCCN3CC4C5c6ccccc6C(c6ccccc65)C4C3)CC2)cc1` (stereo not shown) [Example 76] gave an IC50 of 2 µM. `CC12c3ccccc3C(c3ccccc31)C1CN(CCCN3CCN(c4ccc(F)cc4)CC3)CC12` (stereo not shown) [Example 96] gave an IC50 greater than 10 µM. `O=C1C2C3c4ccccc4C(Cl)(c4ccccc43)C2C(=O)N1CCCN1CCN(c2ccc(F)cc2)CC1` (stereo not shown) [Example 35] was tested, and the IC50 was greater than 10 µM. Compound `CCc1ccccc1N1CCN(CCCN2C(=O)C3C4c5ccccc5C(c5ccccc54)C3C2=O)CC1` (stereo not shown) [Example 20] has an IC50 greater than 10 µM. `O=C1C2C3c4ccccc4C(c4ccccc4)(c4ccccc43)C2C(=O)N1CCCN1CCN(c2ccc(F)cc2)CC1` (stereo not shown) [Example 49] was tested, and the IC50 was greater than 50 µM. `CC12CN(CCCN3CCN(c4ccccc4)CC3)CC1C1c3ccccc3C2c2ccccc21` (stereo not shown) [Example 104] showed an IC50 of 2 µM. With `O=C1C2C3c4ccccc4C(c4ccccc43)C2CN1CCCN1CCN(c2cc(Cl)cc(Cl)c2)CC1` (stereo not shown) [Example 115] the IC50 was 2 µM. In the case of `O=C1C2C(CN1CCCN1CCN(c3ccccc3)CC1)C1(Cl)c3ccccc3C2(Cl)c2ccccc21` (stereo not shown) [Example 116], the IC50 is reported as 2 µM. `O=C1C2C3c4ccccc4C(c4ccccc43)C2C(=O)N1CCCCN1CCN(c2ccc(F)cc2)CC1` (stereo not shown) [Example 5] showed an IC50 greater than 10 µM. `FC(F)(F)c1ccc(N2CCN(CCCCN3CC4C5c6ccccc6C(c6ccccc65)C4C3)CC2)cc1` (stereo not shown) [Example 73] gave an IC50 of 2 µM. `COc1ccccc1N1CCN(CCCN2CC3C4c5ccccc5C(c5ccccc54)C3C2)CC1` (stereo not shown) [Example 86] was tested, and the IC50 was 3 µM. `O=C1C2C3c4ccccc4C(c4ccccc43)C2C(=O)N1CCCN1CCN(c2ccccc2)CC1` (stereo not shown) [Example 7] gave an IC50 greater than 10 µM. Work on `N#CC12c3ccccc3C(c3ccccc31)C1C(=O)N(CCCN3CCN(c4ccc(F)cc4)CC3)C(=O)C12` (stereo not shown) [Example 36] yielded an IC50 greater than 10 µM. Work on `COc1ccc(N2CCN(CCCN3CC4C5c6ccccc6C(c6ccccc65)C4C3)CC2)cc1OC` (stereo not shown) [Example 93] yielded an IC50 of 10 µM. Compound `OCC12c3ccccc3C(c3ccccc31)C1CN(CCCN3CCN(c4ccc(F)cc4)CC3)CC12` (stereo not shown) [Example 98] has an IC50 of 10 µM. `O=C1C2C3c4ccccc4C(CCl)(c4ccccc43)C2C(=O)N1CCCN1CCN(c2ccc(F)cc2)CC1` (stereo not shown) [Example 48] was tested, and the IC50 was 10 µM. Compound `C=CC12c3ccccc3C(c3ccccc31)C1C(=O)N(CCCN3CCN(c4ccc(F)cc4)CC3)C(=O)C12` (stereo not shown) [Example 37] has an IC50 greater than 10 µM. `Cc1ccccc1N1CCN(CCCN2CC3C4c5ccccc5C(c5ccccc54)C3C2)CC1` (stereo not shown) [Example 84] showed an IC50 of 2 µM. `Cc1ccccc1N1CCN(CCCCN2C(=O)C3C4c5ccccc5C(c5ccccc54)C3C2=O)CC1` (stereo not shown) [Example 8] was tested, and the IC50 was greater than 10 µM. In the case of `Clc1ccccc1N1CCN(CCCCN2CC3C4c5ccccc5C(c5ccccc54)C3C2)CC1` (stereo not shown) [Example 65], the IC50 is reported as 0.5 µM. `Cc1cccc(N2CCN(CCCN3C(=O)C4C5c6ccccc6C(c6ccccc65)C4C3=O)CC2)c1` (stereo not shown) [Example 14] showed an IC50 greater than 10 µM. With `Clc1ccc(N2CCN(CCCCN3CC4C5c6ccccc6C(c6ccccc65)C4C3)CC2)cc1` (stereo not shown) [Example 67] the IC50 was 2 µM. Work on `COc1ccc(N2CCN(CCCCN3CC4C5c6ccccc6C(c6ccccc65)C4C3)CC2)cc1` (stereo not shown) [Example 70] yielded an IC50 of 0.5 µM. In the case of `Clc1cccc(N2CCN(CCCCN3CC4C5c6ccccc6C(c6ccccc65)C4C3)CC2)c1` (stereo not shown) [Example 66], the IC50 is reported as 2 µM. `Cc1ccccc1N1CCN(CCCN2C(=O)C3C4c5ccccc5C(c5ccccc54)C3C2=O)CC1` (stereo not shown) [Example 19] gave an IC50 greater than 10 µM. `O=C1C2C(CN1CCCN1CCN(c3ccc(F)cc3)CC1)C1c3ccccc3C2(c2ccccc2)c2ccccc21` (stereo not shown) [Example 114] gave an IC50 of 2 µM. For `O=C1C2C3c4ccccc4C(c4ccccc43)C2C(=O)N1CCCCN1CCN(c2ccccc2)CC1` (stereo not shown) [Example 4], the IC50 was 5 µM. `O=C1C2C3c4ccccc4C(c4ccccc43)C2C(=O)N1CCCN1CCN(c2ccccc2F)CC1` (stereo not shown) [Example 18] was tested, and the IC50 was greater than 10 µM. Compound `CCc1ccccc1N1CCN(CCCN2CC3C4c5ccccc5C(c5ccccc54)C3C2)CC1` (stereo not shown) [Example 85] has an IC50 of 3 µM. For `COc1ccc(N2CCN(CCCN3C(=O)C4C5c6ccccc6C(c6ccccc65)C4C3=O)CC2)cc1OC` (stereo not shown) [Example 28], the IC50 was greater than 10 µM. `NCC12c3ccccc3C(c3ccccc31)C1CN(CCCN3CCN(c4ccc(F)cc4)CC3)CC12` (stereo not shown) [Example 101] gave an IC50 of 1 µM. Compound `O=C1C2C3c4ccccc4C(c4ccccc43)C2C(=O)N1CCN1CCN(c2ccccc2)CC1` (stereo not shown) [Example 3] has an IC50 greater than 10 µM. Work on `Fc1ccc(N2CCN(CCCCN3CC4C5c6ccccc6C(c6ccccc65)C4C3)CC2)cc1` (stereo not shown) [Example 69] yielded an IC50 of 0.6 µM. In the case of `CCOc1ccccc1N1CCN(CCCN2C(=O)C3C4c5ccccc5C(c5ccccc54)C3C2=O)CC1` (stereo not shown) [Example 22], the IC50 is reported as greater than 10 µM. With `Cc1cccc(N2CCN(CCCN3CC4C5c6ccccc6C(c6ccccc65)C4C3)CC2)c1` (stereo not shown) [Example 79] the IC50 was 1 µM. Work on `O=C1C2C3c4ccccc4C(c4ccccc43)C2C(=O)N1CCCN1CCN(c2ccc(C(F)(F)F)cc2)CC1` (stereo not shown) [Example 10] yielded an IC50 greater than 10 µM. For `COc1ccccc1N1CCN(CCCN2C(=O)C3C4c5ccccc5C(c5ccccc54)C3C2=O)CC1` (stereo not shown) [Example 21], the IC50 was greater than 10 µM. `O=C1C2C3c4ccccc4C(c4ccccc43)C2C(=O)N1CCCN1CCN(c2ccccc2Cl)CC1` (stereo not shown) [Example 17] gave an IC50 greater than 10 µM. In the case of `Fc1ccc(N2CCN(CCCN3CC4C5c6ccccc6C(C=Cc6ccccc6)(c6ccccc65)C4C3)CC2)cc1` (stereo not shown) [Example 103], the IC50 is reported as 2 µM. With `COc1cc(N2CCN(CCCN3CC4C5c6ccccc6C(c6ccccc65)C4C3)CC2)cc(OC)c1OC` (stereo not shown) [Example 106] the IC50 was 0.5 µM. `Clc1cccc(N2CCN(CCCN3CC4C5c6ccccc6C(c6ccccc65)C4C3)CC2)c1` (stereo not shown) [Example 78] showed an IC50 of 5 µM. For `O=C1C2C3c4ccccc4C(CCl)(c4ccccc43)C2CN1CCCN1CCN(c2ccc(F)cc2)CC1` (stereo not shown) [Example 113], the IC50 was 2 µM. `Fc1ccc(N2CCN(CCCN3CC4C5c6ccccc6C(Cl)(c6ccccc65)C4C3)CC2)cc1` (stereo not shown) [Example 100] showed an IC50 of 2 µM. `COc1ccc(N2CCN(CCCN3CC4C5c6ccccc6C(c6ccccc65)C4C3)CC2)cc1` (stereo not shown) [Example 77] gave an IC50 of 7 µM. `Cc1ccc(N2CCN(CCCN3C(=O)C4C5c6ccccc6C(c6ccccc65)C4C3=O)CC2)c(C)c1` (stereo not shown) [Example 25] showed an IC50 greater than 10 µM. With `Fc1ccccc1N1CCN(CCCN2CC3C4c5ccccc5C(c5ccccc54)C3C2)CC1` (stereo not shown) [Example 83] the IC50 was 7 µM. Work on `O=C1C2C3c4ccccc4C(c4ccccc43)C2C(=O)N1CCCN1CCN(c2cccc(C(F)(F)F)c2)CC1` (stereo not shown) [Example 15] yielded an IC50 greater than 10 µM. With `O=C1C2C3c4ccccc4C(CO)(c4ccccc43)C2C(=O)N1CCCN1CCN(c2ccccc2)CC1` (stereo not shown) [Example 32] the IC50 was greater than 10 µM. Compound `O=C1C2C3c4ccccc4C(c4ccccc43)C2C(=O)N1CCCN1CCN(c2ccc(F)cc2)CC1` (stereo not shown) [Example 1, 13-{3-[4-(4-Fluorophenyl)piperazin-1-yl]-propyl}-9,10-dihydro-9,10[3', 4']-pyrroloanthracene-12,14(11H,15H) dione] has an IC50 greater than 10 µM. With `COC(OC)C12c3ccccc3C(c3ccccc31)C1CN(CCCN3CCN(c4ccc(F)cc4)CC3)CC12` (stereo not shown) [Example 107] the IC50 was 1 µM. `FC(F)(F)c1cccc(N2CCN(CCCN3CC4C5c6ccccc6C(c6ccccc65)C4C3)CC2)c1` (stereo not shown) [Example 80] was tested, and the IC50 was 5 µM. `OCC12c3ccccc3C(c3ccccc31)C1CN(CCCN3CCN(c4ccccc4)CC3)CC12` (stereo not shown) [Example 97] was tested, and the IC50 was 10 µM. `CC12CN(CCCN3CCN(c4ccc(F)cc4)CC3)CC1C1c3ccccc3C2c2ccccc21` (stereo not shown) [Example 105] was tested, and the IC50 was 2 µM. Compound `FC(F)(F)c1ccc(N2CCN(CCCN3CC4C5c6ccccc6C(c6ccccc65)C4C3)CC2)cc1` (stereo not shown) [Example 75] has an IC50 of 2 µM. Compound `O=C1C2C3c4ccccc4C(c4ccccc43)C2C(=O)N1CCCN1CCN(c2cccc(Cl)c2)CC1` (stereo not shown) [Example 13] has an IC50 greater than 10 µM. `O=C1C2C3c4ccccc4C(C=Cc4ccccc4)(c4ccccc43)C2C(=O)N1CCCN1CCN(c2ccc(F)cc2)CC1` (stereo not shown) [Example 38] was tested, and the IC50 was greater than 10 µM. `ClC12c3ccccc3C(c3ccccc31)C1CN(CCCN3CCN(c4ccccc4)CC3)CC12` (stereo not shown) [Example 99] showed an IC50 of 8 µM. In the case of `Cc1ccc(N2CCN(CCCN3CC4C5c6ccccc6C(c6ccccc65)C4C3)CC2)cc1C` (stereo not shown) [Example 92], the IC50 is reported as 2 µM. With `CC12c3ccccc3C(c3ccccc31)C1CN(CCCN3CCN(c4ccccc4)CC3)CC12` (stereo not shown) [Example 94] the IC50 was 7 µM. `COc1ccc(N2CCN(CCCN3C(=O)C4C5c6ccccc6C(c6ccccc65)C4C3=O)CC2)cc1` (stereo not shown) [Example 12] showed an IC50 greater than 10 µM.

Same assay, conditions: monocyte-free human T cells stimulated with PWM and 5-HT; 3H-thymidine incorporation; 7 days
`O=C1C2C(C(=O)N1CCCN1CCN(c3ccc(F)cc3)CC1)C1(Br)c3ccccc3C2(Br)c2ccccc21` (stereo not shown) [Example 111] gave an IC50 of 10 µM. `CC12c3ccccc3C(C)(c3ccccc31)C1C(=O)N(CCCN3CCN(c4ccc(F)cc4)CC3)C(=O)C12` (stereo not shown) [Example 44] was tested, and the IC50 was greater than 10 µM. For `CC12c3ccccc3C(C)(c3ccccc31)C1C(=O)N(CCCN3CCN(c4ccc(F)cc4)CC3)C(=O)C12` (stereo not shown) [Example 110], the IC50 was 2 µM.
